Laboratory results from PubChem BioAssay (NCI).
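1) Cells in 96-well plates. 2) Compound, 48 h, 5 concentrations. 3) Linear interpolation between surrounding doses. 4) Unreached endpoint = highest concentration. TGI denotes the concentration required for complete inhibition of growth.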

How the values were obtained:
Experiment in all cases: NCI tumour cell line growth inhibition, 48 h
K-562 leukemia = system: K-562 leukemia
HT29 colon = system: HT29 colon
TK-10 renal = system: TK-10 renal
DU-145 prostate = system: DU-145 prostate
HCC-2998 colon = system: HCC-2998 colon
786-0 renal = system: 786-0 renal
NCI-H460 lung = system: NCI-H460 lung
MALME-3M melanoma = system: MALME-3M melanoma
SK-MEL-5 melanoma = system: SK-MEL-5 melanoma
MDA-MB-231 breast = system: MDA-MB-231 breast
LOX IMVI melanoma = system: LOX IMVI melanoma
SK-MEL-28 melanoma = system: SK-MEL-28 melanoma
NCI/ADR-RES ovarian = system: NCI/ADR-RES ovarian
IGROV1 ovarian = system: IGROV1 ovarian
HOP-92 NSCLC = system: HOP-92 NSCLC
UO-31 renal = system: UO-31 renal
CCRF-CEM leukemia = system: CCRF-CEM leukemia
SN12C renal = system: SN12C renal
HL-60(TB) leukemia = system: HL-60(TB) leukemia
HCT-116 colon = system: HCT-116 colon
MDA-N = system: MDA-N
OVCAR-8 ovarian = system: OVCAR-8 ovarian
HOP-62 NSCLC = system: HOP-62 NSCLC
SF-295 CNS = system: SF-295 CNS
RPMI-8226 leukemia = system: RPMI-8226 leukemia
NCI-H226 lung = system: NCI-H226 lung
SK-OV-3 ovarian = system: SK-OV-3 ovarian
NCI-H522 lung = system: NCI-H522 lung
SW-620 colon = system: SW-620 colon
OVCAR-3 ovarian = system: OVCAR-3 ovarian
OVCAR-5 ovarian = system: OVCAR-5 ovarian
MDA-MB-435 = system: MDA-MB-435
COLO 205 colon = system: COLO 205 colon
CAKI-1 renal = system: CAKI-1 renal
A549 NSCLC = system: A549 NSCLC
HCT-15 colon = system: HCT-15 colon
BT-549 breast = system: BT-549 breast
EKVX NSCLC = system: EKVX NSCLC
SF-539 CNS = system: SF-539 CNS
PC-3 prostate = system: PC-3 prostate
UACC-257 melanoma = system: UACC-257 melanoma
MOLT-4 leukemia = system: MOLT-4 leukemia
SR leukemia = system: SR leukemia
U251 CNS = system: U251 CNS
ACHN renal = system: ACHN renal
M14 melanoma = system: M14 melanoma
SF-268 CNS = system: SF-268 CNS
SNB-75 CNS = system: SNB-75 CNS
SK-MEL-2 melanoma = system: SK-MEL-2 melanoma
OVCAR-4 ovarian = system: OVCAR-4 ovarian
UACC-62 melanoma = system: UACC-62 melanoma
NCI-H23 lung = system: NCI-H23 lung
RXF 393 renal = system: RXF 393 renal
A498 renal = system: A498 renal
MCF7 breast = system: MCF7 breast
HS 578T breast = system: HS 578T breast
KM12 colon = system: KM12 colon
T-47D breast = system: T-47D breast
SNB-19 CNS = system: SNB-19 CNS

Measured: TGI

O=c1nc2ccc([N+](=O)[O-])cc2[n+]([O-])[nH]1
> 100 µM: all assays above
